ChEMBL document CHEMBL1201862, “PubChem BioAssay data set” (2004)
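Method: 48-hour compound exposure of cells in 96-well plates, five concentrations, linear interpolation of endpoints. GI50 is the concentration that inhibits growth by half.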 Calls of active or inactive are those of the source. Rule as the data show it: active = GI50 up to about 1.1 µM and inactive = higher.

What was measured:
Test in all cases: inhibition of tumour cell growth, NCI panel, 48 h
SW-620 = system: SW-620
SK-MEL-2 = system: SK-MEL-2
OVCAR-8 = system: OVCAR-8
U-251 = system: U-251
Hs-578T = system: Hs-578T
A549 = system: A549
SK-MEL-5 = system: SK-MEL-5
MDA-MB-231 = system: MDA-MB-231
OVCAR-5 = system: OVCAR-5
KM12 = system: KM12
786-0 = system: 786-0
HCT-116 = system: HCT-116
K562 = system: K562
HOP-92 = system: HOP-92
IGROV-1 = system: IGROV-1
COLO 205 = system: COLO 205
HL-60 = system: HL-60
SNB-19 = system: SNB-19
Malme-3M = system: Malme-3M
MDA-N = system: MDA-N
HT-29 = system: HT-29
MDA-MB-435 = system: MDA-MB-435
OVCAR-3 = system: OVCAR-3
NCI-H23 = system: NCI-H23
MOLT-4 = system: MOLT-4
CCRF-CEM = system: CCRF-CEM
SF-539 = system: SF-539
SK-MEL-28 = system: SK-MEL-28
OVCAR-4 = system: OVCAR-4
NCI-H522 = system: NCI-H522
NCI/ADR-RES = system: NCI/ADR-RES
SF-268 = system: SF-268
DU-145 = system: DU-145
NCI-H460 = system: NCI-H460
SNB-75 = system: SNB-75
ACHN = system: ACHN
HOP-62 = system: HOP-62
PC-3 = system: PC-3
MCF7 = system: MCF7
T47D = system: T47D
UO-31 = system: UO-31
CAKI-1 = system: CAKI-1
SF-295 = system: SF-295
M14 = system: M14
HCC 2998 = system: HCC 2998
HCT-15 = system: HCT-15
EKVX = system: EKVX
UACC-257 = system: UACC-257
SN12C = system: SN12C
TK-10 = system: TK-10
NCI-H226 = system: NCI-H226
LOX IMVI = system: LOX IMVI
RPMI-8226 = system: RPMI-8226
SR = system: SR
RXF 393 = system: RXF 393
SK-OV-3 = system: SK-OV-3
A498 = system: A498
UACC-62 = system: UACC-62

## NCCC(=O)NC(Cc1c[nH]cn1)C(=O)O (centres undefined)
SW-620
  GI50: > 100 µM (inactive)
SK-MEL-2
  GI50: > 100 µM (inactive)
OVCAR-8
  GI50: > 100 µM (inactive)
U-251
  GI50: > 100 µM (inactive)
Hs-578T
  GI50: > 100 µM (inactive)
A549
  GI50: > 100 µM (inactive)
SK-MEL-5
  GI50: > 100 µM (inactive)
MDA-MB-231
  GI50: > 100 µM (inactive)
OVCAR-5
  GI50: > 100 µM (inactive)
KM12
  GI50: > 100 µM (inactive)
786-0
  GI50: > 100 µM (inactive)
HCT-116
  GI50: > 100 µM (inactive)
K562
  GI50: > 100 µM (inactive)
HOP-92
  GI50: > 100 µM (inactive)
IGROV-1
  GI50: > 100 µM (inactive)
COLO 205
  GI50: > 100 µM (inactive)
HL-60
  GI50: > 100 µM (inactive)
SNB-19
  GI50: > 100 µM (inactive)
Malme-3M
  GI50: > 100 µM (inactive)
MDA-N
  GI50: > 100 µM (inactive)
HT-29
  GI50: > 100 µM (inactive)
MDA-MB-435
  GI50: > 100 µM (inactive)
OVCAR-3
  GI50: > 100 µM (inactive)
NCI-H23
  GI50: > 100 µM (inactive)
MOLT-4
  GI50: > 100 µM (inactive)
CCRF-CEM
  GI50: > 100 µM (inactive)
SF-539
  GI50: > 100 µM (inactive)
SK-MEL-28
  GI50: > 100 µM (inactive)
OVCAR-4
  GI50: > 100 µM (inactive)
NCI-H522
  GI50: > 100 µM (inactive)
NCI/ADR-RES
  GI50: > 100 µM (inactive)
SF-268
  GI50: > 100 µM (inactive)
DU-145
  GI50: > 100 µM (inactive)
NCI-H460
  GI50: > 100 µM (inactive)
SNB-75
  GI50: > 100 µM (inactive)
ACHN
  GI50: > 100 µM (inactive)
HOP-62
  GI50: > 100 µM (inactive)
PC-3
  GI50: > 100 µM (inactive)
MCF7
  GI50: > 100 µM (inactive)
T47D
  GI50: > 100 µM (inactive)
UO-31
  GI50: > 100 µM (inactive)
CAKI-1
  GI50: > 100 µM (inactive)
SF-295
  GI50: > 100 µM (inactive)
M14
  GI50: > 100 µM (inactive)
HCC 2998
  GI50: > 100 µM (inactive)
HCT-15
  GI50: > 100 µM
EKVX
  GI50: > 100 µM (inactive)
UACC-257
  GI50: > 100 µM (inactive)
SN12C
  GI50: > 100 µM (inactive)
TK-10
  GI50: > 100 µM (inactive)
NCI-H226
  GI50: > 100 µM (inactive)
LOX IMVI
  GI50: > 100 µM (inactive)
RPMI-8226
  GI50: > 100 µM (inactive)

## Cc1ccc(NCCCN2CCN(CCCNc3ccc(C)c4sc5ccccc5c(=O)c34)CC2)c2c(=O)c3ccccc3sc12
SW-620
  GI50: > 100 µM (inactive)
SK-MEL-2
  GI50: 23.4 µM (inactive)
SR
  GI50: > 100 µM (inactive)
OVCAR-8
  GI50: > 100 µM (inactive)
U-251
  GI50: 67.6 µM (inactive)
Hs-578T
  GI50: 37.2 µM (inactive)
A549
  GI50: > 100 µM (inactive)
SK-MEL-5
  GI50: > 100 µM (inactive)
MDA-MB-231
  GI50: > 100 µM (inactive)
OVCAR-5
  GI50: > 100 µM (inactive)
KM12
  GI50: > 100 µM (inactive)
786-0
  GI50: 95.5 µM (inactive)
HCT-116
  GI50: > 100 µM (inactive)
RXF 393
  GI50: 39.4 µM (inactive)
K562
  GI50: > 100 µM (inactive)
IGROV-1
  GI50: > 100 µM (inactive)
COLO 205
  GI50: > 100 µM (inactive)
HL-60
  GI50: > 100 µM (inactive)
SNB-19
  GI50: > 100 µM (inactive)
Malme-3M
  GI50: > 100 µM (inactive)
MDA-N
  GI50: > 100 µM (inactive)
HT-29
  GI50: > 100 µM (inactive)
MDA-MB-435
  GI50: > 100 µM (inactive)
OVCAR-3
  GI50: > 100 µM (inactive)
NCI-H23
  GI50: > 100 µM (inactive)
MOLT-4
  GI50: > 100 µM (inactive)
CCRF-CEM
  GI50: > 100 µM (inactive)
SK-OV-3
  GI50: > 100 µM (inactive)
SF-539
  GI50: > 100 µM (inactive)
SK-MEL-28
  GI50: 30.5 µM (inactive)
OVCAR-4
  GI50: > 100 µM (inactive)
NCI-H522
  GI50: > 100 µM (inactive)
NCI/ADR-RES
  GI50: > 100 µM (inactive)
SF-268
  GI50: 34.2 µM (inactive)
DU-145
  GI50: 71.6 µM (inactive)
NCI-H460
  GI50: > 100 µM (inactive)
SNB-75
  GI50: 20.6 µM (inactive)
ACHN
  GI50: > 100 µM (inactive)
HOP-62
  GI50: > 100 µM (inactive)
PC-3
  GI50: 21.4 µM (inactive)
MCF7
  GI50: > 100 µM (inactive)
T47D
  GI50: 58.7 µM (inactive)
UO-31
  GI50: > 100 µM (inactive)
CAKI-1
  GI50: > 100 µM (inactive)
SF-295
  GI50: 55.6 µM (inactive)
M14
  GI50: > 100 µM (inactive)
HCC 2998
  GI50: > 100 µM (inactive)
HCT-15
  GI50: > 100 µM
EKVX
  GI50: 86.3 µM (inactive)
UACC-257
  GI50: > 100 µM (inactive)
SN12C
  GI50: > 100 µM (inactive)
A498
  GI50: 82 µM (inactive)
UACC-62
  GI50: 68.7 µM (inactive)
NCI-H226
  GI50: > 100 µM (inactive)
LOX IMVI
  GI50: 98.4 µM (inactive)
RPMI-8226
  GI50: > 100 µM (inactive)
